Counter-ions that a name gives are not always drawn. Like-named read-outs stand apart in the source and are kept apart here.
Legend:
Type in all cases: cell-based, rabbit (Japan white, male)
[1] = tested on: platelet activating factor (PAF)-induced rabbit platelet aggregation in plasma; test: PAF-induced platelet aggregation in rabbit platelet rich plasma; conditions: Oryctolagus cuniculus, Platelet, PAF 10^-8 M, compound added 2 minutes prior to PAF, rabbit PRP
Description: (§1) Method: Nine volumes of blood were drawn from the central ear artery of male rabbit (Japan white, 3 kg) directly into plastic syringe containing 1 volume of 3.8% sodium citrate. The blood was centrifuged at 270×g for 10 minutes at room temperature and the platelet rich plasma (PRP) was removed. The pellet was further centrifuged at 1,100×g for 15 minutes. The supernatant was used as platelet poor plasma (PPP). The platelet concentration was adjusted to 5×10^5 cells/μl with PPP. Platelet aggregation was measured by the method of G. V. R. Born and M. J. Cross [Journal of Physiology, 168, 178-195 (1963)] using a HEMA TRACER (Nikou Bio Science, Japan). Varying concentration of compounds were added to the PRP 2 minutes prior to PAF (10^-8 M). The extent of platelet aggregation was determined by the maximum change of light transmission, assigning the transmission of unstimulated PRP to be 0% and that of PPP to be as 100%. Percent inhibition with compound was calculated by dividing the percent aggregation in the presence of compound by that in the control, and then the IC50 values were calculated.

[2] = tested on: platelet aggregation induced by ADP; test: platelet aggregation induced by ADP; conditions: ADP 3×10^-6 M; data not shown
Description: as §1, with “Varying concentration of compounds were added to the PRP 2 minutes prior to PAF (10^-8 M).” left out

[3] = tested on: platelet aggregation induced by arachidonic acid; test: platelet aggregation induced by arachidonic acid; conditions: arachidonic acid 1×10^-4 M; data not shown
Description: as §1, with “Varying concentration of compounds were added to the PRP 2 minutes prior to PAF (10^-8 M).” left out

[4] = tested on: platelet aggregation induced by collagen; test: platelet aggregation induced by collagen; conditions: collagen 10 μg/ml; data not shown
Description: as §1, with “Varying concentration of compounds were added to the PRP 2 minutes prior to PAF (10^-8 M).” left out

SMILES | IC50 ([1]; read-out: IC50 values) | IC50 ([1]; Table 1, read-out: IC50) | inhibition of platelet aggregation induced by ADP [2] | inhibition of platelet aggregation induced by arachidonic acid [3] | inhibition of platelet aggregation induced by collagen [4]
CCCCCCCCN1CCN(C(=O)C2CSC(c3cccnc3)N2)CC1 (centres unmarked) [Example 90, 1-octyl-4-[2-(3-pyridyl)thiazolidin-4-ylcarbonyl]piperazine fumarate] | 28 to 85 nM | 67 nM | did not inhibit | did not inhibit | did not inhibit
Cc1ccc(CCCN2CCN(C(=O)C3CSC(c4cccnc4)N3)CC2)cc1 (centres unmarked) [Example 119] | 28 to 85 nM | 79 nM | did not inhibit | did not inhibit | did not inhibit
CC(CCN1CCN(C(=O)C2CSC(c3cccnc3)N2)CC1)c1ccccc1 (centres unmarked) [Example 142] | 28 to 85 nM | – | did not inhibit | did not inhibit | did not inhibit

— patent US4987132A, “Saturated heterocyclic carboxamide derivatives” (Yamanouchi Pharmaceutical Co., Ltd., priority 1987, dated 1991)
